Test results from paper PMC8370248, “Key Metabolic Enzymes Involved in Remdesivir Activation in Human Lung Cells” (Antimicrobial Agents and Chemotherapy, 2021).
“Also recorded” adds a separate entry of the source. Structures can show the parent of a compound that is named as a salt. Blank lines part the entries; values can stand above or below the compound they belong to.

How the values were obtained:
CatA = biological target: T1, CatA (Homo sapiens, UniProt P10619); test: CatA-catalyzed hydrolysis of RDV and control (substrate disappearance, LC-MS)
T1 sequence (P10619 29-326 limits assumed): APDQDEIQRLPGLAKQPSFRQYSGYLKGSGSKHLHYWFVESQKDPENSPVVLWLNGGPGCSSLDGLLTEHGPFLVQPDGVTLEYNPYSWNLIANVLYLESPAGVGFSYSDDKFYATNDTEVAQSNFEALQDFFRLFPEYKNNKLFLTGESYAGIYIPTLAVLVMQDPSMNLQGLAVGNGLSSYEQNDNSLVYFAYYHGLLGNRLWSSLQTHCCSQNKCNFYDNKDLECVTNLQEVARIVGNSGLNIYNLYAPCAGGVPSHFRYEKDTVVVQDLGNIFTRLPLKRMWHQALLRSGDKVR
T1 sequence (P10619 327-480 limits assumed): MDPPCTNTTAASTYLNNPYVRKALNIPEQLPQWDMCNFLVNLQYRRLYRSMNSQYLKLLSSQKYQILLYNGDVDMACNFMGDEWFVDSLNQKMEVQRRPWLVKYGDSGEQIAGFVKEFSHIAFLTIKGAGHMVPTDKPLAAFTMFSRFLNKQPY
Experimental: (§1) The catalytic activity of carboxylesterase 1b (CES1b), carboxylesterase 1c (CES1c), CES2, and CatA toward RDV hydrolysis was measured using protein-enriched subcellular fraction (CES isozymes) or recombinant proteins (CatA). The reaction rates were determined by monitoring the disappearance of RDV using a liquid chromatography-mass spectrometry (LC-MS) method.
Following protein precipitation and centrifugation, 150 μl of supernatant was dried down and reconstituted with 250 μl water. […] Three experiments were conducted with two replicates in each experiment, and data are reported as averages from the three experiments.
(§2) In all studies apart from those with CES1 and CatA with enzyme inhibitors, samples (10-μl aliquots) were injected with a Thermo Scientific autosampler. The LC instrumentation consisted of a Thermo Scientific Dionex UltiMate 3000 RS pump, and the LC column was a Waters Acquity UPLC BEH C18 (1.7 μm particle size, 2.1 by 50 mm). Mobile phases A and B were water 99.9% (vol/vol) containing 0.1% (vol/vol) formic acid, and acetonitrile 99.9% (vol/vol) containing 0.1% (vol/vol) formic acid, respectively, pumped at 0.2 ml/minute. Elution was achieved by a series of linear gradients over 2.33 min followed by reequilibration for 2.57 min. The MS instrument was a Thermo Q Exactive Hybrid Quadrupole-Orbitrap operating in positive or negative ionization mode as appropriate. This was calibrated on a weekly basis, and data were processed with GMSU 8.4.66 software by Gubbs Inc. (Alpharetta, GA). Mass tolerance of 5 ppm was used.

CES1b = biological target: T2, CES1b (Homo sapiens, UniProt P23141); test: CES1b-catalyzed hydrolysis of RDV and control (substrate disappearance, LC-MS); type: in vitro ADME; conditions: 1 μM substrate, CES 1.5 mg/ml, pH 7.4, 37°C
T2 construct: purchased Corning Incorporated (Corning, NY); host or cells: baculovirus-infected insect cells (microsomal fraction, Supersomes)
T2 sequence (P23141 18-567): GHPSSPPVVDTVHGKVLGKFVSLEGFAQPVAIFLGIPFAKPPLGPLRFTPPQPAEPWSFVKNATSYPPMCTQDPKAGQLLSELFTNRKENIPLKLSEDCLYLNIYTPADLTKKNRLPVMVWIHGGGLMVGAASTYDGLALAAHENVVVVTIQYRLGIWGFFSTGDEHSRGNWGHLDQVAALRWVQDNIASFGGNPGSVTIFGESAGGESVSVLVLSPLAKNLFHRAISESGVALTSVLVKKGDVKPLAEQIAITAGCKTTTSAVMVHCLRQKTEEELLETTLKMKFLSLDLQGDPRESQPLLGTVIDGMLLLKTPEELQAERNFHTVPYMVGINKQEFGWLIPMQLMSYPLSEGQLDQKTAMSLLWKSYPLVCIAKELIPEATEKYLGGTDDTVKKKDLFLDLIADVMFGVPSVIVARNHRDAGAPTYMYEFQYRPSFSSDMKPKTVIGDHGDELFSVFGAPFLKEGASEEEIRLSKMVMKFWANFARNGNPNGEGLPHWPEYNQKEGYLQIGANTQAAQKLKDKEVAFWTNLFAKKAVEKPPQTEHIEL
Experimental: as §1
(§3) RDV or positive-control substrates (oseltamivir for CES1 or procaine for CES2) were incubated with individual Supersome preparations (final CES concentration, 1.5 mg/ml) in 0.1 M potassium phosphate buffer (pH 7.4) at 37°C. Substrates were added to a final concentration of 1 μM to initiate the reaction. The final incubation volume was 250 μl. Aliquots were removed after incubation for 0, 10, 30, 60, and 120 min. The reactions were stopped by the addition of the quench solution containing the LC-MS internal standard (IS) (labetalol). Following protein precipitation and centrifugation, 150 μl of supernatant was dried down and reconstituted with 250 μl water. All samples were analyzed by an LC-MS, and the analyte/internal standard peak area ratio (PAR) values were used for quantification. Disappearance of RDV or positive-control compounds was monitored over the incubation time period. Three experiments were conducted with two replicates in each experiment, and data are reported as averages from the three experiments.
as §2

CES1c = biological target: T3, CES1c (Homo sapiens, UniProt P23141); test: CES1c-catalyzed hydrolysis of RDV and control (substrate disappearance, LC-MS); type: in vitro ADME; conditions: 1 μM substrate, CES 1.5 mg/ml, pH 7.4, 37°C
T3 construct: purchased Corning Incorporated (Corning, NY); host or cells: baculovirus-infected insect cells (microsomal fraction, Supersomes)
T3 sequence (P23141 18-566 isoform P23141-3 limits assumed): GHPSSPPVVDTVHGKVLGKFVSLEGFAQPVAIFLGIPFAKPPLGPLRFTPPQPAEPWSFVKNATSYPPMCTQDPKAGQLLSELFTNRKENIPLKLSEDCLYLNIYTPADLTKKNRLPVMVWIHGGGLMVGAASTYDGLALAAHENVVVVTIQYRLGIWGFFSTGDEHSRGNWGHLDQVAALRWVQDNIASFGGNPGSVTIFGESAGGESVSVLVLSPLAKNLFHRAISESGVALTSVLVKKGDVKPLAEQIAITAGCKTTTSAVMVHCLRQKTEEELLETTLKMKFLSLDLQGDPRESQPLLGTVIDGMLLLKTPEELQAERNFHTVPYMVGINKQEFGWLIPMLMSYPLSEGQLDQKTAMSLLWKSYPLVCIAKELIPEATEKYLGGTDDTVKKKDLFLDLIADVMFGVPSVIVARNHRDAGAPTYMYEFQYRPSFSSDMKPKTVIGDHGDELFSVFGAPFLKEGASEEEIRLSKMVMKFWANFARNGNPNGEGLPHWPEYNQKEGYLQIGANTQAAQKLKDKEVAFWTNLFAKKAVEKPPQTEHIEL
Experimental: as §1, §3, §2

[1] = Chemical hydrolysis of MetX under acidic conditions mimicking lysosomal lumen; type: physicochemical
Experimental: P-N bond cleavage of RDV MetX was evaluated under acidic pH, mimicking intracellular lysosomal conditions.
To test the chemical stability of RDV MetX under acidic conditions (found within the lysosomal lumen) or neutral conditions (e.g., found in the cytosol of cells), 1 μM compound was incubated in a 250-μl reaction mixture consisting of 100 mM sodium acetate (pH 4.5) or 100 mM HEPES (pH 7.5). […] For reactions carried out at pH 4.5, the pH of the reaction aliquots was raised to pH 9 to 10 by addition of 7.5 μl of 0.2 M NaOH prior to addition of the quenching solution. Following protein precipitation and centrifugation, 150 μl of supernatants were dried down and reconstituted with 250 μl water. All samples were analyzed by LC-MS, and PAR values were used for quantification. Disappearance of MetX was monitored over the incubation time period. Three experiments were conducted with two replicates for each experiment, and data are reported as averages from three experiments.

HINT1 = biological target: T4, HINT1 (Homo sapiens, UniProt P49773); test: HINT1-catalyzed hydrolysis of RDV MetX and positive control; type: in vitro ADME
T4 construct: purchased Abcam (Cambridge, MA)

CES2 = biological target: T5, CES2 (Homo sapiens, UniProt O00748); test: CES2-catalyzed hydrolysis of RDV and control (substrate disappearance, LC-MS); type: in vitro ADME; conditions: CES 1.5 mg/ml, pH 7.4, 37°C
T5 construct: purchased Corning Incorporated (Corning, NY); host or cells: baculovirus-infected insect cells (microsomal fraction, Supersomes)
T5 sequence (O00748 27-559): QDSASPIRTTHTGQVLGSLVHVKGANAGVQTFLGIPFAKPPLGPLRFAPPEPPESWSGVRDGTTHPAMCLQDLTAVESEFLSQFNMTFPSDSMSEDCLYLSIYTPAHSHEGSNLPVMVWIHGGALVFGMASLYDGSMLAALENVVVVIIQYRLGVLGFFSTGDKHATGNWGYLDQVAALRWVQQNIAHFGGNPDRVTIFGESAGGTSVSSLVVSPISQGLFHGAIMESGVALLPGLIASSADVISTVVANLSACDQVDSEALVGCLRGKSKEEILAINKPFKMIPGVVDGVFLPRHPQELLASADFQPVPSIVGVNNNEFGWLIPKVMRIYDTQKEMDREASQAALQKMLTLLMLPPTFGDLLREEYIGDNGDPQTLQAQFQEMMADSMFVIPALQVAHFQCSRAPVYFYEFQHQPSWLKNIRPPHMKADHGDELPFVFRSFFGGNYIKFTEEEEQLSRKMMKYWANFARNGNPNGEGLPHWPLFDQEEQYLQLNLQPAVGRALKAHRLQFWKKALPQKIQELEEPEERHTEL
Experimental: as §1, §3, §2

[2] = 1 μM compound, 100 mM sodium acetate pH 4.5

T4 sequence (P49773 whole entry): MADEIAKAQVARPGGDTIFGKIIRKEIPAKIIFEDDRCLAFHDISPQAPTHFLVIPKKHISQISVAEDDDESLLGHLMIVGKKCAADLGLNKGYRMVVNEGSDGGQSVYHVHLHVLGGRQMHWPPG

SMILES: CC(C)OC(=O)[C@H](C)N[P@](=O)(CO[C@H](C)Cn1cnc2c(N)ncnc21)Oc1ccccc1 [TAF (GS-7340), tenofovir alafenamide fumarate]
- Activity for amidate ester cleavage, CatA (CatA; 1 μM substrate, 5 nM CatA, pH 6.5, 37°C): 254 ± 154 nmol/min/mg
- half-life at 1 μM (CatA; human, pH 6.5): 13 min

- Activity for amidate ester cleavage, CES1b (CES1b): 2.3 ± 0.1 × 10^−2 nmol/min/mg
- half-life at 1 μM (CES1b; human, CES1b Supersomes (protein-enriched subcellular fraction), read-out: t1/2, CES1b (converted)): 20 min
- Activity for amidate ester cleavage, CES1c (CES1c): 1.5 ± 0.2 × 10^−2 nmol/min/mg
- half-life at 1 μM (CES1c; human, CES1c Supersomes (protein-enriched subcellular fraction), read-out: t1/2, CES1c (converted)): 31 min
SMILES: CCOC(=O)C1=C[C@@H](OC(CC)CC)[C@H](NC(C)=O)[C@@H](N)C1 [Oseltamivir]

SMILES: C[C@H](N[P@@](=O)(O)OC[C@H]1O[C@@](C#N)(c2ccc3c(N)ncnn23)[C@H](O)[C@@H]1O)C(=O)O [RDV MetX]
- Lysosomal hydrolysis at pH 4.5 [1, 2]: 0 ± 0 nmol/min
- P-N bond cleavage under acidic pH ([1]; acidic pH mimicking intracellular lysosomal conditions): no RDV MetX hydrolysis product was detectable; also recorded: completely resistant to acid hydrolysis
- half-life at 1 μM ([1]; buffer, pH 4.5): > 167 h
- HINT1 hydrolysis (HINT1; 1 μM substrate, 250 nM HINT1, pH 7.2, 37°C): 32 ± 12 nmol/min/mg
- half-life at 1 μM (HINT1; human, recombinant HINT1, 1 μM substrate, 250 nM HINT1, pH 7.2, 37°C, read-out: t1/2, HINT1 hydrolysis (converted)): 5.5 min
- HINT1 metabolism rate relative to GS-6620 MetX (HINT1; times faster than known substrate GS-6620 MetX): 6 times

SMILES: CC(Cn1cnc2c(N)ncnc21)OCP(=O)(O)NC(C)C(=O)O (stereo not shown) [TAF MetX]
- Lysosomal hydrolysis at pH 4.5 [1, 2]: 1.2 ± 0.6 × 10^−3 nmol/min
- t1/2, lysosomal hydrolysis at pH 4.5 [1, 2]: 16 ± 7 min

SMILES: CCN(CC)CCOC(=O)c1ccc(N)cc1 [Procaine]
- Activity for amidate ester cleavage, CES2 (CES2; 1 μM substrate): 4.4 ± 0.8 × 10^−3 nmol/min/mg
- half-life at 1 μM (CES2; human, CES2 Supersomes (protein-enriched subcellular fraction), pH 7.4, 1 μM substrate, read-out: t1/2, CES2 (converted)): 110 min
